For 33 compounds, IC50 results are on record in patent publication US10961238B2, “Modulators of hedgehog (Hh) signaling pathway” (E-THERAPEUTICS PLC, priority 2016, dated 2021).

What is called IC50 is the concentration that gives 50% inhibition.

The first experiment deals with C3H10T1/2 cells. The experiment can be described thus: C3H assay: differentiation of C3H10T1/2 cells by mSHH, measurement of alkaline phosphatase. The experiment is classed as cell-based, mouse. The conditions noted are these: C3H10T1/2 cells stimulated with mSHH for 72 hours; alkaline phosphatase activity; read-out: IC50 Ranges.
As for `CC1(C)COCN1C(=O)N1CC(S(=O)(=O)N2CCC(c3coc4cccnc34)CC2)C1` [Compound 372, (4,4-dimethyl-1,3-oxazolidin-3-yl)-[3-(4-furo[3,2-b]pyridin-3-ylpiperidin-1-yl)sulfonylaze-tidin-1-yl]methanone], the IC50 lay in the range of 10 to 100 nM.

The experiment is the same for the next values; noted with them: Mus musculus, C3H 10T1/2; C3H10T1/2 cells stimulated with mSHH for 72 hours; alkaline phosphatase activity; read-out: IC50 Ranges.
On to `Cc1ccc(C2CCN(S(=O)(=O)C3CN(C(=O)OC(C)(C)C)C3)CC2)c(C)c1` [Compound 354, tert-butyl 3-[4-(2,4-dimethylphenyl)piperidin-1-yl]sulfonylaze-tidine-1-carboxylate], for which the half-maximal inhibitory concentration (IC50) lay within 1000 to 10000 nM.
Still for that read-out and setting: as for `CN(C(=O)N1CCC(S(=O)(=O)N2CCC(c3c[nH]c4ncccc34)CC2)C1)C(C)(C)C` (stereo not drawn) [Compound 272, N-tert-butyl-N-methyl-3-[4-(1H-pyrrolo[2,3-b]pyridin-3-yl)piperidin-1-yl]sulfonylpyrr olidine-1-carboxamide], the figure is 10 to 100 nM; as for `CC(C)(C)NC(=O)N1CC(S(=O)(=O)N2CCC(c3c[nH]c4ncccc34)CC2)C1` [Compound 108, N-tert-butyl-3-[4-(1H-pyrrolo[2,3-b]pyridin-3-yl)piperidin-1-yl]sulfonylaze-tidine-1-carboxamide], 10 to 100 nM; as for `CN(C(=O)N1CC(S(=O)(=O)N2CCC(c3ccc(F)cc3)CC2)C1)C1CC1` [Compound 340, N-cyclopropyl-3-[4-(4-fluorophenyl)piperidin-1-yl]sulfonyl-N-methylazetidine-1-carboxamide], 1000 to 10000 nM.
Same read-out and setting: the figure for `CC(C)(C)OC(=O)N1CC(S(=O)(=O)N2CCC(c3cnn4ccncc34)CC2)C1` [Compound 130, tert-butyl 3-(4-pyrazolo[1,5-a]pyrazin-3-ylpiperidin-1-yl)sulfonylaze-tidine-1-carboxylate] is 1000 to 10000 nM; for `O=C(OC1COCOC1)N1CC(S(=O)(=O)N2CCC(c3c[nH]c4ncccc34)CC2)C1` [Compound 220, 1,3-dioxan-5-yl 3-[4-(1H-pyrrolo[2,3-b]pyridin-3-yl)piperidin-1-yl]sulfonylaze-tidine-1-carboxylate] it is 10 to 100 nM.
Same read-out and setting: as for `CC(C)(C)OC(=O)N1CC(S(=O)(=O)N2CCC(c3c[nH]c4ncc(F)cc34)CC2)C1` [Compound 1, tert-butyl 3[4-(5-fluoro-1H-pyrrolo[2,3-b]pyridin-3-yl)piperidin-1-yl]sulfonylaze-tidine-1-carboxylate], the figure is 100 to 1000 nM.
With `CC(C)(C)OC(=O)N1CC(S(=O)(=O)N2CCC(c3ccc(C#N)cc3)CC2)C1` [Compound 303, tert-butyl 3-[4-(4-cyanophenyl)piperidin-1-yl]sulfonylaze-tidine-1-carboxylate], the 50% inhibitory concentration (IC50) fell in the range of 100 to 1000 nM.
Take `Cc1noc(C)c1CC(=O)N1CC(S(=O)(=O)N2CCC(c3ccc(Cl)cc3)CC2)C1` [Compound 386, 1-[3-[4-(4-chlorophenyl)piperidin-1-yl]sulfonylaze-tidin-1-yl]-2-(3,5-dimethyl-1,2-oxazol-4-yl)ethanone]: the IC50 fell in the range of 10 to 100 nM.
`O=C(c1cccs1)N1CC(S(=O)(=O)N2CCC(c3c[nH]c4ncccc34)CC2)C1` [Compound 193, [3-[4-(1H-pyrrolo[2,3-b]pyridin-3-yl)piperidin-1-yl]sulfonylaze-tidin-1-yl]-thiophen-2-ylmethanone]: the half-maximal inhibitory concentration (IC50) was in the range of 10 to 100 nM.
For the compound `Cc1ccc(S(=O)(=O)n2ccc3c(C4CCN(S(=O)(=O)C5CCN(C(=O)OC(C)(C)C)CC5)CC4)ccnc32)cc1` [Compound 8, tert-butyl 4-[4-[1-(4-methylphenyl)-sulfonylpyrrolo[2,3-b]pyridin-4-yl]piperidin-1-yl]sulfonylpiper-idine-1-carboxylate], the IC50 fell in the range of 10 to 100 nM.
For the compound `CN(C)S(=O)(=O)N1CC(S(=O)(=O)N2CCC(c3c[nH]c4ncccc34)CC2)C1` [Compound 90, N,N-dimethyl-3-[4-(1H-pyrrolo[2,3-b]pyridin-3-yl)piperidin-1-yl]sulfonylaze-tidine-1-sulfonamide], the IC50 was 100 to 1000 nM.
Take `COc1ccnc(N2CC(S(=O)(=O)N3CCC(c4c[nH]c5ncccc45)CC3)C2)c1C#N` [Compound 252, 4-methoxy-2-[3-[4-(1H-pyrrolo [2,3-b]pyridin-3-yl)piperidin-1-yl]sulfonylaze-tidin-1-yl]pyridine-3-carbonitrile]: the IC50 lay within 100 to 1000 nM.
Regarding `O=C(NC1(C(F)(F)F)CC1)N1CC(S(=O)(=O)N2CCC(c3nc4ccccc4[nH]3)CC2)C1` [Compound 300, 3-[4-(1H-benzimidazol-2-yl)piperidin-1-yl]sulfonyl-N-[1-(trifluoromethyl)cyclopropyl] azetidine-1-carboxamide], the 50% inhibitory concentration (IC50) lay within 1000 to 10000 nM.
For the compound `CC(C)(C)OC(=O)N1CCC(S(=O)(=O)N2CC=C(c3coc4cccnc34)CC2)CC1` [Compound 232, tert-butyl 4-[(4-furo[3,2-b]pyridin-3-yl-3,6-dihydro-2H-pyridin-1-yl)sulfonyl]pip eridine-1-carboxylate], the IC50 is 100 to 1000 nM.
Regarding `Cc1noc(C)c1CC(=O)N1CC(S(=O)(=O)N2CCC(c3coc4cccnc34)CC2)C1` [Compound 138, N-2-(3,5-Dimethylisoxazol-4-yl)-acetyl 3-[(4-furo[3,2-b]pyridin-3-yl-1-piperidyl)sulfonyl]azetidine], the IC50 is less than 10 nM.
Still for that read-out and setting: the figure for `O=C(Nc1cc(F)ccc1Cl)N1CC(S(=O)(=O)N2CCC(c3coc4cccnc34)CC2)C1` [Compound 384, N-(2-chloro-5-fluorophenyl)-3-(4-furo[3,2-b]pyridin-3-ylpiperidin-1-yl)sulfonylaze-tidine-1-carboxamide] is 10 to 100 nM.
On the same count and under the same terms, the figure for `Cc1noc(C)c1CNC(=O)N1CC(S(=O)(=O)N2CCC(c3ccncc3)CC2)C1` [Compound 203, N-[(3,5-dimethyl-1,2-oxazol-4-yl)methyl]-3-(4-pyridin-4-ylpiperidin-1-yl)sulfonylaze-tidine-1-carboxamide] is 1000 to 10000 nM.
Consider `Cc1noc(C)c1CCN1CC(S(=O)(=O)N2CCC(c3coc4cccnc34)CC2)C1` [Compound 134, 3-[1-[1-[2-(3,5-dimethyl-1,2-oxazol-4-yl)ethyl]azetidin-3-yl]sulfonylpiper-idin-4-yl]furo [3,2-b]pyridine], for which the IC50 is 100 to 1000 nM.
As for `O=C(N1CC(S(=O)(=O)N2CCC(c3c[nH]c4ncccc34)CC2)C1)n1ccnc1` [Compound 79, imidazol-1-yl-[3-[4-(1H-pyrrolo[2,3-b]pyridin-3-yl)piperidin-1-yl]sulfonylaze-tidin-1-yl]methanone], the IC50 lay in the range of 1000 to 10000 nM.
As for `Cc1ccc(NC(=O)N2CC(S(=O)(=O)N3CCC(c4c[nH]c5ncccc45)CC3)C2)cc1` [Compound 276, N-(4-methylphenyl)-3-[4-(1H-pyrrolo[2,3-b]pyridin-3-yl)piperidin-1-yl]sulfonylaze-tidine-1-carboxamide], the IC50 lay in the range of 100 to 1000 nM.
Turning to `O=C(C1CC1)N1CC(S(=O)(=O)N2CCC(c3c[nH]c4ncccc34)CC2)C1` [Compound 191, cyclopropyl-[3-[4-(1H-pyrrolo[2,3-b]pyridin-3-yl)piperidin-1-yl]sulfonylaze-tidin-1-yl]methanone], the half-inhibitory concentration (IC50) lay within 100 to 1000 nM.
On the same count and under the same terms, the figure for `C[C@@H]1CN(C(=O)N2CC(S(=O)(=O)N3CCC(c4c[nH]c5ncccc45)CC3)C2)C[C@@H](C)O1` [Compound 164, [(2R,6R)-2,6-dimethylmorpholin-4-yl]-[3-[4-(1H-pyrrolo[2,3-b]pyridin-3-yl)piperidin-1-yl]sulfonylaze-tidin-1-yl]methanone] is 10 to 100 nM.
The same measure, in the same setting: as for `CC(C)(C)OC(=O)N1CC(S(=O)(=O)N2CCC(c3cnc4n3CCC4)CC2)C1` [Compound 5, tert-butyl 3-[4-(6,7-dihydro-5H-pyrrolo[1,2-a]imidazol-3-yl)piperidin-1-yl]sulfonylaze-tidine-1-carboxylate], the figure is 1000 to 10000 nM; as for `C[C@](O)(CC(=O)N1CC(S(=O)(=O)N2CCC(c3c[nH]c4ncccc34)CC2)C1)C(F)(F)F` [Compound 405, 4,4,4-trifluoro-3-hydroxy-3-methyl-1-[3-[4-(1H-pyrrolo[2,3-b]pyridin-3-yl)piperidin-1-yl]sulfonylaze-tidin-1-yl]butan-1-one], 10 to 100 nM; as for `COc1ccc(COC(=O)N2CC(S(=O)(=O)N3CCC(c4c[nH]c5ncccc45)CC3)C2)cc1` [Compound 214, (4-methoxyphenyl) methyl 3-[4-(1H-pyrrolo[2,3-b]pyridin-3-yl)piperidin-1-yl]sulfonylaze-tidine-1-carboxylate], 10 to 100 nM.
On the same count and under the same terms, as for `CN(Cc1ccco1)C(=O)N1CC(S(=O)(=O)N2CCC(c3c[nH]c4ncccc34)CC2)C1` [Compound 178, N-(2-Furylmethyl)-N-methyl-3-[[4-(1H-pyrrolo[2,3-b]pyridin-3-yl)-1-piperidyl]sulfonyl]azetidine-1-carboxamide], the figure is 10 to 100 nM; as for `COc1ccc(C(F)(F)F)c(N2CC(S(=O)(=O)N3CCC(c4c[nH]c5ncccc45)CC3)C2)n1` [Compound 185, 3-[1-[1-[6-methoxy-3-(trifluoromethyl)pyridin-2-yl]azetidin-3-yl]sulfonylpiper-idin-4-yl]-1H-pyrrolo[2,3-b]pyridine], 100 to 1000 nM.
Turning to `O=C(O[C@H]1CCOC1)N1CC(S(=O)(=O)N2CCC(c3c[nH]c4ncccc34)CC2)C1` [Compound 197, [(3S)-oxolan-3-yl]3-[4-(1H-pyrrolo[2,3-b]pyridin-3-yl)piperidin-1-yl]sulfonylaze-tidine-1-carboxylate], the IC50 is 10 to 100 nM.
Still for that read-out and setting: as for `CC(C)(C)OC(=O)NC1CC(S(=O)(=O)N2CCC(c3c[nH]c4ncccc34)CC2)C1` (stereo not drawn) [Compound 336, tert-butyl N-[3-[4-(1H-pyrrolo[2,3-b]pyridin-3-yl)piperidin-1-yl]sulfonylcyclobutyl] carbamate], the figure is 10 to 100 nM; as for `CC(C)(C)OC(=O)N1CCC(S(=O)(=O)N2CCC(c3ccncc3)CC2)C1` (racemic) [Compound 269, tert-butyl 3-(4-pyridin-4-ylpiperidin-1-yl)sulfonylpyrrolidine-1-carboxylate], 100 to 1000 nM; as for `Cc1nn(C)c(C)c1CNC(=O)N1CC(S(=O)(=O)N2CCC(c3c[nH]c4ncccc34)CC2)C1` [Compound 95, 3-[4-(1H-pyrrolo[2,3-b]pyridin-3-yl)piperidin-1-yl]sulfonyl-N-[(1,3,5-trimethylpyrazol-4-yl)methyl]azetidine-1-carboxamide], 100 to 1000 nM.
